Laboratory results taken from patent publication US20240415914A1, “Water Dispersible Cannabinoid Compositions” (priority 2021, published 2024).
Read-outs that look alike come from different tables or passages of the source.

How the values were obtained:
[1] = type: physicochemical; conditions: stored at room temperature (21-25° C.)
Description: At each time period, 0.05 g of powder was dissolved in 10 ml-15 of ethanol, diluted to fall within the analytical range, and injected into the LCMSMS for analysis.

[2] = Stability of cannabinoid and Vitamin E components of Beverage 2 (AB Red) stored at 8° C. and 21-25° C., LCMSMS over 570 days
Description: The LCMSMS was calibrated for 0-50 ng/ml cannabinoids with the same resin material used in the preparation of the concentrates. At each time period, 100 μml of beverage was diluted with 10 ml of methanol and injected into the LCMSMS for analysis.

CCCCCc1cc2c(c(O)c1C(=O)O)[C@@H]1C=C(C)CC[C@H]1C(C)(C)O2 [D9 THCA, delta-9-tetrahydrocannabinolic acid]
1.35 µg/mL: Stability of Cannabinoids in AB Red ([2]; 8° C., 0 days) | Stability of Cannabinoids in AB Red ([2]; 8° C., 3 days) | Stability of Cannabinoids in AB Red ([2]; 8° C., 8 days) | Stability of Cannabinoids in AB Red ([2]; 8° C., 10 days) | Stability of Cannabinoids in AB Red ([2]; 8° C., 11 days) | Stability of Cannabinoids in AB Red ([2]; 8° C., 18 days) | Stability of Cannabinoids in AB Red ([2]; 8° C., 29 days) | Stability of Cannabinoids in AB Red ([2]; 21-25° C., 0 days) | Stability of Cannabinoids in AB Red ([2]; 21-25° C., 9 days) | Stability of Cannabinoids in AB Red ([2]; 21-25° C., 17 days) | Stability of Cannabinoids in AB Red ([2]; 21-25° C., 25 days)
1.34 µg/mL: Stability of Cannabinoids in AB Red ([2]; 8° C., 1 days) | Stability of Cannabinoids in AB Red ([2]; 8° C., 2 days) | Stability of Cannabinoids in AB Red ([2]; 8° C., 17 days) | Stability of Cannabinoids in AB Red ([2]; 8° C., 22 days) | Stability of Cannabinoids in AB Red ([2]; 8° C., 25 days) | Stability of Cannabinoids in AB Red ([2]; 8° C., 90 days) | Stability of Cannabinoids in AB Red ([2]; 8° C., 150 days) | Stability of Cannabinoids in AB Red ([2]; 8° C., 330 days) | Stability of Cannabinoids in AB Red ([2]; 21-25° C., 1 days) | Stability of Cannabinoids in AB Red ([2]; 21-25° C., 22 days) | Stability of Cannabinoids in AB Red ([2]; 21-25° C., 30 days) | Stability of Cannabinoids in AB Red ([2]; 21-25° C., 90 days) | Stability of Cannabinoids in AB Red ([2]; 21-25° C., 120 days)
0.156 mg/g powder: Stability in Powder Concentrate (content by LCMSMS) ([1]; day 8) | Stability in Powder Concentrate (content by LCMSMS) ([1]; day 17) | Stability in Powder Concentrate (content by LCMSMS) ([1]; day 300) | Stability in Powder Concentrate (content by LCMSMS) ([1]; day 330)
1.29 µg/mL: Stability of Cannabinoids in AB Red ([2]; 8° C., 390 days) | Stability of Cannabinoids in AB Red ([2]; 8° C., 420 days) | Stability of Cannabinoids in AB Red ([2]; 21-25° C., 480 days) | Stability of Cannabinoids in AB Red ([2]; 21-25° C., 540 days)
0.152 mg/g powder: Stability in Powder Concentrate (content by LCMSMS) ([1]; day 12) | Stability in Powder Concentrate (content by LCMSMS) ([1]; day 29)
0.153 mg/g powder: Stability in Powder Concentrate (content by LCMSMS) ([1]; day 150) | Stability in Powder Concentrate (content by LCMSMS) ([1]; day 390)
0.145 mg/g powder: Stability in Powder Concentrate (content by LCMSMS) ([1]; day 11)
1.36 µg/mL: Stability of Cannabinoids in AB Red ([2]; 8° C., 5 days) | Stability of Cannabinoids in AB Red ([2]; 8° C., 9 days) | Stability of Cannabinoids in AB Red ([2]; 21-25° C., 5 days) | Stability of Cannabinoids in AB Red ([2]; 21-25° C., 8 days) | Stability of Cannabinoids in AB Red ([2]; 21-25° C., 16 days) | Stability of Cannabinoids in AB Red ([2]; 21-25° C., 18 days) | Stability of Cannabinoids in AB Red ([2]; 21-25° C., 23 days)
0.151 mg/g powder: Stability in Powder Concentrate (content by LCMSMS) ([1]; day 9) | Stability in Powder Concentrate (content by LCMSMS) ([1]; day 15) | Stability in Powder Concentrate (content by LCMSMS) ([1]; day 30) | Stability in Powder Concentrate (content by LCMSMS) ([1]; day 210)
1.26 µg/mL: Stability of Cannabinoids in AB Red ([2]; 8° C., 540 days) | Stability of Cannabinoids in AB Red ([2]; 21-25° C., 390 days) | Stability of Cannabinoids in AB Red ([2]; 21-25° C., 420 days)
1.31 µg/mL: Stability of Cannabinoids in AB Red ([2]; 8° C., 16 days) | Stability of Cannabinoids in AB Red ([2]; 8° C., 30 days) | Stability of Cannabinoids in AB Red ([2]; 8° C., 450 days) | Stability of Cannabinoids in AB Red ([2]; 21-25° C., 19 days) | Stability of Cannabinoids in AB Red ([2]; 21-25° C., 240 days) | Stability of Cannabinoids in AB Red ([2]; 21-25° C., 450 days)
1.28 µg/mL: Stability of Cannabinoids in AB Red ([2]; 8° C., 480 days) | Stability of Cannabinoids in AB Red ([2]; 21-25° C., 60 days) | Stability of Cannabinoids in AB Red ([2]; 21-25° C., 150 days) | Stability of Cannabinoids in AB Red ([2]; 21-25° C., 330 days)
1.32 µg/mL: Stability of Cannabinoids in AB Red ([2]; 8° C., 12 days) | Stability of Cannabinoids in AB Red ([2]; 8° C., 19 days) | Stability of Cannabinoids in AB Red ([2]; 8° C., 60 days) | Stability of Cannabinoids in AB Red ([2]; 8° C., 240 days) | Stability of Cannabinoids in AB Red ([2]; 21-25° C., 3 days) | Stability of Cannabinoids in AB Red ([2]; 21-25° C., 26 days)
1.27 µg/mL: Stability of Cannabinoids in AB Red ([2]; 21-25° C., 270 days) | Stability of Cannabinoids in AB Red ([2]; 21-25° C., 300 days) | Stability of Cannabinoids in AB Red ([2]; 21-25° C., 510 days)
0.150 mg/g powder: Stability in Powder Concentrate (content by LCMSMS) ([1]; day 0) | Stability in Powder Concentrate (content by LCMSMS) ([1]; day 1) | Stability in Powder Concentrate (content by LCMSMS) ([1]; day 3) | Stability in Powder Concentrate (content by LCMSMS) ([1]; day 22) | Stability in Powder Concentrate (content by LCMSMS) ([1]; day 24) | Stability in Powder Concentrate (content by LCMSMS) ([1]; day 25) | Stability in Powder Concentrate (content by LCMSMS) ([1]; day 26)
0.149 mg/g powder: Stability in Powder Concentrate (content by LCMSMS) ([1]; day 18) | Stability in Powder Concentrate (content by LCMSMS) ([1]; day 480)
1.25 µg/mL: Stability of Cannabinoids in AB Red ([2]; 8° C., 510 days)
1.30 µg/mL: Stability of Cannabinoids in AB Red ([2]; 8° C., 120 days) | Stability of Cannabinoids in AB Red ([2]; 8° C., 180 days) | Stability of Cannabinoids in AB Red ([2]; 8° C., 300 days) | Stability of Cannabinoids in AB Red ([2]; 21-25° C., 2 days) | Stability of Cannabinoids in AB Red ([2]; 21-25° C., 15 days) | Stability of Cannabinoids in AB Red ([2]; 21-25° C., 24 days) | Stability of Cannabinoids in AB Red ([2]; 21-25° C., 180 days)
0.148 mg/g powder: Stability in Powder Concentrate (content by LCMSMS) ([1]; day 10) | Stability in Powder Concentrate (content by LCMSMS) ([1]; day 240) | Stability in Powder Concentrate (content by LCMSMS) ([1]; day 270) | Stability in Powder Concentrate (content by LCMSMS) ([1]; day 570)
0.147 mg/g powder: Stability in Powder Concentrate (content by LCMSMS) ([1]; day 2) | Stability in Powder Concentrate (content by LCMSMS) ([1]; day 23) | Stability in Powder Concentrate (content by LCMSMS) ([1]; day 90) | Stability in Powder Concentrate (content by LCMSMS) ([1]; day 120)
0.157 mg/g powder: Stability in Powder Concentrate (content by LCMSMS) ([1]; day 16)
0.155 mg/g powder: Stability in Powder Concentrate (content by LCMSMS) ([1]; day 360) | Stability in Powder Concentrate (content by LCMSMS) ([1]; day 450)
1.33 µg/mL: Stability of Cannabinoids in AB Red ([2]; 8° C., 15 days) | Stability of Cannabinoids in AB Red ([2]; 8° C., 23 days) | Stability of Cannabinoids in AB Red ([2]; 8° C., 24 days) | Stability of Cannabinoids in AB Red ([2]; 8° C., 26 days) | Stability of Cannabinoids in AB Red ([2]; 8° C., 210 days) | Stability of Cannabinoids in AB Red ([2]; 8° C., 270 days) | Stability of Cannabinoids in AB Red ([2]; 21-25° C., 10 days) | Stability of Cannabinoids in AB Red ([2]; 21-25° C., 11 days) | Stability of Cannabinoids in AB Red ([2]; 21-25° C., 12 days) | Stability of Cannabinoids in AB Red ([2]; 21-25° C., 29 days) | Stability of Cannabinoids in AB Red ([2]; 21-25° C., 210 days)
0.146 mg/g powder: Stability in Powder Concentrate (content by LCMSMS) ([1]; day 5) | Stability in Powder Concentrate (content by LCMSMS) ([1]; day 19) | Stability in Powder Concentrate (content by LCMSMS) ([1]; day 60)
1.24 µg/mL: Stability of Cannabinoids in AB Red ([2]; 8° C., 570 days) | Stability of Cannabinoids in AB Red ([2]; 21-25° C., 570 days)
0.154 mg/g powder: Stability in Powder Concentrate (content by LCMSMS) ([1]; day 180) | Stability in Powder Concentrate (content by LCMSMS) ([1]; day 420) | Stability in Powder Concentrate (content by LCMSMS) ([1]; day 510) | Stability in Powder Concentrate (content by LCMSMS) ([1]; day 540)
